Series [1] is described as follows: Reversal of P-gp-mediated multidrug resistance in human KB/VCR cells assessed as potentiation of vincristine-induced antiproliferative activity by measuring vincristine IC50 at 2 uM measured after 72 hrs by CCK8 assay (Rvb = 0.51 uM).
The nature of series [2]: Reversal of P-gp-mediated multidrug resistance in human KB/VCR cells assessed as potentiation of vincristine-induced antiproliferative activity by measuring vincristine IC50 at 20 uM measured after 72 hrs by CCK8 assay (Rvb = 0.78 uM).

pIC50: −log10 of the molar value. Bounds are passed on as bounds.

As to `CC(=O)O[C@H]1[C@@H]2[C@@H](OC(=O)/C=C/c3ccccc3)[C@]3(OC2(C)C)[C@H](C)C[C@@H](OC(C)=O)[C@H](OC(C)=O)[C@@]3(C)[C@H]1OC(=O)c1ccccc1`, the negative logarithm of the IC50 (pIC50) in series [1] is 7.00; in series [2], over 8.10. For the compound `CC(=O)O[C@@H]1[C@@H]2[C@@H](OC(C)=O)[C@]3(OC2(C)C)[C@H](C)C[C@H](OC(=O)/C=C/c2ccccc2)[C@H](OC(C)=O)[C@@]3(C)[C@@H]1OC(=O)c1ccccc1`, the values for the negative-log IC50 (pIC50) in series [1] and in series [2] were 7.00 and 7.59, respectively.

On to `CC(=O)O[C@H]1[C@@H]2[C@@H](OC(=O)c3cccnc3)[C@]3(OC2(C)C)[C@H](C)C[C@H](OC(C)=O)[C@@H](OC(C)=O)[C@@]3(C)[C@H]1OC(=O)c1ccccc1`, for which the pIC50 in series [1] was 7.19; in series [2], over 8.10. Taken in the same sequence, the figures for `CC(=O)O[C@@H]1[C@@H]2[C@@H](OC(C)=O)[C@]3(OC2(C)C)[C@H](C)CC[C@H](OC(C)=O)[C@@]3(C)[C@@H]1OC(=O)c1ccccc1` were 6.70 and over 8.10.

As for `CC(=O)O[C@H]1CC[C@@H](C)[C@]23OC(C)(C)[C@H](C[C@H](OC(=O)c4ccccc4)[C@]12C)[C@H]3OC(C)=O`, the pIC50 in series [1] was 6.68; in series [2], 7.82. Taken in the same sequence, the figures for `CC(=O)OC[C@]12[C@H](OC(C)=O)C(=O)[C@@H]3[C@@H](O)[C@]1(OC3(C)C)[C@H](C)[C@@H](O)[C@H](OC(C)=O)[C@@H]2OC(C)=O` were 6.30 and 6.28.

For the compound `CC(=O)O[C@@H]1[C@@H]2[C@@H](OC(C)=O)[C@]3(OC2(C)C)[C@H](C)C[C@@H](OC(C)=O)[C@H](OC(C)=O)[C@@]3(C)[C@@H]1OC(=O)c1ccccc1`, the pIC50 in series [1] was 6.82; in series [2], 7.66. Regarding `CC(=O)O[C@@H]1C[C@@H](C)[C@]23OC(C)(C)[C@H](C[C@H](OC(=O)c4ccccc4)[C@]2(C)[C@H]1OC(C)=O)[C@H]3OC(=O)/C=C/c1ccccc1`, the negative-log IC50 (pIC50) in series [1] is 7.24. Take `CC(=O)O[C@@H]1[C@@H]2[C@@H](OC(C)=O)[C@]3(OC2(C)C)[C@H](C)CC[C@H](OC(C)=O)[C@@]3(C)[C@H]1OC(=O)c1ccccc1`: the negative-log IC50 (pIC50) is 6.62 in series [1] and 7.47 in series [2]. With `CC(=O)O[C@H]1[C@@H]2[C@@H](OC(C)=O)[C@]3(OC2(C)C)[C@H](C)C[C@@H](OC(C)=O)[C@H](OC(C)=O)[C@@]3(C)[C@H]1OC(=O)c1ccccc1`, the pIC50 is 6.72 in series [1] and 7.25 in series [2]. Consider `CC(=O)O[C@H]1[C@@H]2[C@@H](OC(=O)/C=C/c3ccccc3)[C@]3(OC2(C)C)[C@H](C)C[C@H](O)[C@H](OC(C)=O)[C@@]3(C)[C@H]1OC(=O)c1ccccc1`, for which the pIC50 in series [1] is 7.43. As for `CC(=O)O[C@@H]1[C@H]2[C@H](O)[C@H](OC(=O)c3ccccc3)[C@]3(C)[C@@H](OC(C)=O)[C@H](O)C[C@@H](C)[C@@]13OC2(C)C`, the pIC50 is 6.37 in series [1] and 6.51 in series [2].

Turning to `CC(=O)OC[C@]12[C@H](OC(C)=O)C(=O)[C@@H]3[C@@H](OC(C)=O)[C@]1(OC3(C)C)[C@H](C)C[C@H](O)[C@@H]2OC(C)=O`, the values for the negative logarithm of the IC50 (pIC50) in series [1] and in series [2] were 6.32 and 6.48, respectively. With `CC(=O)O[C@@H]1C[C@@H](C)[C@]23OC(C)(C)[C@H]([C@@H](O)[C@H](OC(=O)c4ccccc4)[C@@]2(C)[C@H]1OC(C)=O)[C@H]3OC(=O)/C=C/c1ccccc1`, the pIC50 in series [1] is 7.32. Still for that read-out and setting: for `COc1cc2c(cc1OC)CN(CCc1ccc(-n3nnc(-c4cc(OC)c(OC)cc4NC(=O)c4cc(=O)c5ccccc5o4)n3)cc1)CC2` [Encequidar] the value was 7.80. Take `CCCCCC(=O)O[C@@H]1[C@@H]2[C@@H](OC(C)=O)[C@]3(OC2(C)C)[C@H](C)C[C@@H](OC(C)=O)[C@H](OC(C)=O)[C@@]3(C)[C@H]1OC(=O)c1ccccc1`: the negative logarithm of the IC50 (pIC50) in series [1] is 6.46; in series [2], 7.68. For `CC(=O)O[C@H]1CC[C@@H](C)[C@]23OC(C)(C)[C@H](C[C@H](OC(=O)c4ccccc4)[C@]12C)[C@H]3OC(=O)c1ccccc1`, the negative-log IC50 (pIC50) in series [1] is 7.00. For `CC(=O)OC[C@]12[C@H](OC(C)=O)C(=O)[C@@H]3[C@@H](O)[C@]1(OC3(C)C)[C@H](C)[C@@H](OC(C)=O)[C@H](OC(C)=O)[C@@H]2OC(C)=O`, the negative logarithm of the IC50 (pIC50) in series [1] is 6.33; in series [2], 6.59. Taken in the same sequence, the figures for `CC(=O)OC[C@]12[C@H](OC(C)=O)C(=O)[C@@H]3[C@@H](OC(C)=O)[C@]1(OC3(C)C)[C@H](C)[C@@H](O)[C@H](OC(C)=O)[C@@H]2OC(C)=O` were 6.26 and 6.41.

The record behind these values is BindingDB's records for doi:10.1021/acs.jnatprod.0c01182 (Chinese Academy of Sciences, 2021).
